Measured values published in patent US20180305332A1, “Bispiperidinyl Derivatives as Liver X Receptor Beta Agonists, Compositions, and Their Use” (Merck Sharp & Dohme Corp., priority 2015, published 2018).

How the values were obtained:
[1] = biological target: T1, GST tagged LXRbeta LBD (ligand binding domain) (Homo sapiens, UniProt P55055); assay: LanthaScreen TR-FRET Liver X Receptor Coactivator Assay, LXR beta-LBD; assay type: biochemical; settings: relative to reference T0901317; for EC50: Inflection Point (potency), co-activator recruitment, read-out: LXR beta IP; for Emax: activity at max dose (efficacy), read-out: LXR beta act @ max dose (%)
T1 construct: purchased Invitrogen pv4658.pps
T1 sequence (P55055 222-460 limits assumed): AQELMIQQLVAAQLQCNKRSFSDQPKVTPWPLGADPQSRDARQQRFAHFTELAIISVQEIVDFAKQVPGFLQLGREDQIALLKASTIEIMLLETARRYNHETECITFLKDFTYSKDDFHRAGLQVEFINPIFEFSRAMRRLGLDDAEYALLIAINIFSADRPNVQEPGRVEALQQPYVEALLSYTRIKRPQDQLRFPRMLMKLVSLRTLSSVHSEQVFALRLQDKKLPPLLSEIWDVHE
Method in brief: (§1)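 GST-tagged human LXRα or LXRβ LBD was mixed with test compound, then fluorescein-labelled coactivator peptide and terbium anti-GST antibody added. After room-temperature incubation, TR-FRET was read. Inflection point and Emax expressed relative to reference dual agonist T0901317.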

[2] = biological target: T2, GST tagged LXRalpha LBD (ligand binding domain) (Homo sapiens, UniProt Q13133); assay: LanthaScreen TR-FRET Liver X Receptor Coactivator Assay, LXR alpha-LBD; assay type: biochemical; settings: relative to reference T0901317; for EC50: read-out: LXR alpha IP; for Emax: activity at max dose (efficacy), read-out: LXR alpha act @ max dose (%)
T2 construct: purchased Invitrogen pv4655
T2 sequence (Q13133 209-447 limits assumed): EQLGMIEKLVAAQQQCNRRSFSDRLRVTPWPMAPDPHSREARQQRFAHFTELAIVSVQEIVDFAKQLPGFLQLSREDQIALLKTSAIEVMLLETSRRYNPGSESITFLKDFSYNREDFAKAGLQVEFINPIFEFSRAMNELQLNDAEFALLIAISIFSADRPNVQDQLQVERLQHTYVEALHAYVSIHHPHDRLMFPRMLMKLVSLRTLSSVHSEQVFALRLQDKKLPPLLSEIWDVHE
Method in brief: as §1

[3] = Inflection Point (potency), co-activator recruitment

SMILES | EC50 [1] | Emax [1] | EC50 [2, 3] | Emax [2] | LXR alpha IP (nM) [2, 3]
O=C(c1ccc(N2CCC(C3CCN(C(=O)[C@](O)(c4ccccc4)C(F)(F)F)CC3)CC2)cc1Cl)N1CCCC1C1CC1 (stereo partly drawn) [Example E-57, (2R)-3-(1′-{3-chloro-4-[(2-cyclopropylpyrrolidin-1-yl)carbonyl]phenyl}-4,4′-bipiperidin-1-yl)-1,1,1-trifluoro-3-oxo-2-phenylpropan-2-ol] | 134 nM | 65% | 975 nM | 16% | 
O=C(c1ccc(N2CCC(C3CCN(C(=O)[C@](O)(c4ccccc4)C(F)(F)F)CC3)CC2)cc1Cl)N1CCCC2(CC2)C1 [Example E-37, (2R)-3-{1′-[4-(5-azaspiro[2.5]oct-5-ylcarbonyl)-3-chlorophenyl]-4,4′-bipiperidin-1-yl}-1,1,1-trifluoro-3-oxo-2-phenylpropan-2-ol] | 216 nM | 70% |  | 5% | NO IP
COCCCN(C)C(=O)c1ccc(N2CCC(C3CCN(C(=O)[C@](O)(c4ccccc4)C(F)(F)F)CC3)CC2)cc1Cl [Example E-48, 2-chloro-N-(3-methoxyproply)-N-methyl-4-{1′-[(2R)-3,3,3-trifluoro-2-hydroxy-2-phenylpropanoyl]-4,4′-bipiperidin-1-yl}benzamide] | 175 nM | 106% | 1720 nM | 26% | 
COc1ccccc1C(O)(C(=O)N1CCC(C2CCN(c3ccc(C(=O)N(C)C)c(Cl)c3)CC2)CC1)C(F)(F)F (stereo not shown) [Example A-97, 2-chloro-N,N-dimethyl-4-{1′-[3,3,3-trifluoro-2-hydroxy-2-(2-methoxyphenyl)propanoyl]-4,4′-bipiperidin-1-yl}benzamide] | 114 nM | 100% | 2430 nM | 37% | 
CN(C)C(=O)c1ccc(N2CCC(C3CCN(C(=O)c4c(F)cc(F)cc4F)CC3)CC2)cc1Cl [Example A-37, 2-chloro-N,N-dimethyl-4-{1′-[(2,4,6-trifluorophenyl)carbonyl]-4,4′-bipiperidin-1-yl}benzamide] | 274 nM | 93% | 4100 nM | 35% | 
CN(C)C(=O)c1ccc(N2CCC(C3CCN(C(=O)C4(c5ccccc5)CCCC4)CC3)CC2)cc1Cl [Example A-40, 2-chloro-N,N-dimethyl-4-{1′-[(1-phenylcyclopentyl)carbonyl]-4,4′-bipiperidin-1-yl}benzamide] | 37 nM | 113% | 940 nM | 41% | 
CN(C)C(=O)c1ccc(N2CCC(C3CCN(C(=O)C(O)(c4ccccc4)C(F)(F)C(F)(F)C(F)(F)F)CC3)CC2)cc1Cl (stereo not shown) [Example A-54, 2-chloro-4-[1′-(3,3,4,4,5,5,5-heptafluoro-2-hydroxy-2-phenylpentanoyl)-4,4′-bipiperidin-1-yl]-N,N-dimethylbenzamide] | 410 nM | 75% | 827 nM | 15% | 
CN(C)C(=O)c1ccc(N2CCC(C3CCN(C(=O)C(C)(O)C(F)(F)F)CC3)CC2)nc1Cl (stereo not shown) [Example B-11, 2-chloro-N,N-dimethyl-6-[1′-(3,3,3-trifluoro-2-hydroxy-2-methylpropanoyl)-4,4′-bipiperidin-1-yl]pyridine-3-carboxamide] | 177 nM | 116% | 2200 nM | 48% | 
Cc1ccc(C2(C(=O)N3CCC(C4CCN(c5ccc(C(=O)N(C)C)c(Cl)c5)CC4)CC3)CCC2)cc1 [Example A-72, 2-chloro-N,N-dimethyl-4-(1′-{[1-(4-methylphenyl)cyclobutyl]carbonyl}-4,4′-bipiperidin-1-yl)benzamide] | 112 nM | 96% | 1260 nM | 30% | 
CC1CCCN1C(=O)c1ccc(N2CCC(C3CCN(C(=O)[C@](O)(c4ccccc4)C(F)(F)F)CC3)CC2)cc1Cl (stereo partly drawn) [Example E-25, (2R)-3-(1′-{3-chloro-4-[(2-methylpyrrolidin-1-yl)carbonyl]phenyl}-4,4′-bipiperidin-1-yl)-1,1,1-trifluoro-3-oxo-2-phenylpropan-2-ol] | 332 nM | 88% | 769 nM | 15% | 
COC(=O)c1ccc(N2CCC(C3CCN(C(=O)c4c(F)cccc4F)CC3)CC2)cc1Cl [Example E-2, methyl 2-chloro-4-{1′-[(2,6-difluorophenyl)carbonyl]-4,4′-bipiperidin-1-yl}benzoate] | 153 nM | 25% | 58 nM | 26% | 
CN(C)C(=O)c1ccc(N2CCC(C3CCN(C(=O)C(O)(c4ccccc4)C4CC4)CC3)CC2)cc1Cl (stereo not shown) [Example A-52, 2-chloro-4-{1′-[cyclopropyl(hydroxy)phenylacetyl]-4,4′-bipiperidin-1-yl}-N,N-dimethylbenzamide] | 171 nM | 96% | 2070 nM | 22% | 
CN(C)C(=O)c1ccc(N2CCC(C3CCN(C(=O)C4(c5ccccc5)CCC4)CC3)CC2)cc1Cl [Example A-14, 2-chloro-N,N-dimethyl-4-{1′-[(1-phenylcyclobutyl)carbonyl]-4,4′-bipiperidin-1-yl}benzamide] | 36 nM | 114% | 1530 nM | 38% | 
CN(C)C(=O)c1ccc(N2CCC(C3CCN(C(=O)C4(C(F)(F)F)CCCCC4)CC3)CC2)cc1Cl [Example A-27, 2-chloro-N,N-dimethyl-4-(1′-{[1-(trifluoromethyl)cyclohexyl]carbonyl}-4,4′-bipiperidin-1-yl)benzamide] | 26 nM | 119% | 300 nM | 70% | 
CN(Cc1nccs1)C(=O)c1ccc(N2CCC(C3CCN(C(=O)[C@](O)(c4ccccc4)C(F)(F)F)CC3)CC2)cc1Cl [Example E-49, 2-chloro-N-methyl-N-(1,3-thiazol-2-ylmethyl)-4-{1′-[(2R)-3,3,3-trifluoro-2-hydroxy-2-phenylpropanoyl]-4,4′-bipiperidin-1-yl}benzamide] | 184 nM | 77% | 1380 nM | 30% | 
CN(C)C(=O)c1ccc(N2CCC(C3CCN(C(=O)c4c(F)cccc4Cl)CC3)CC2)cc1Cl [Example A-24, 2-chloro-4-{1′-[(2-chloro-6-fluorophenyl)carbonyl]-4,4′-bipiperidin-1-yl}-N,N-dimethylbenzamide] | 89 nM | 107% | 4850 nM | 31% | 
CC(C)C(O)(C(=O)N1CCC(C2CCN(c3ccc(C(=O)N(C)C)c(F)c3)CC2)CC1)C(F)(F)F [Example D-2, 2-fluoro-4-{1′-[2-hydroxy-3-methyl-2-(trifluoromethyl)butanoyl]-4,4′-bipiperidin-1-yl}-N,N-dimethylbenzamide] | 400 nM | 99% | 2770 nM | 41% | 
CN(C)C(=O)c1ccc(N2CCC(C3CCN(C(=O)C(O)(C4CC4)C(F)(F)F)CC3)CC2)cc1Cl (single isomer, unassigned) [Example A-8, 2-chloro-4-[1′-(2-cyclopropyl-3,3,3-trifluoro-2-hydroxypropanoyl)-4,4′-bipiperidin-1-yl]-N,N-dimethylbenzamide] | 247 nM | 95% | 1810 nM | 60% | 
CC(C)N(C)C(=O)c1ccc(N2CCC(C3CCN(C(=O)[C@](O)(c4ccccc4)C(F)(F)F)CC3)CC2)cc1Cl [Example E-33, 2-chloro-N-methyl-N-(1-methylethyl)-4-{1′-[(2R)-3,3,3-trifluoro-2-hydroxy-2-phenylpropanoyl]-4,4′-bipiperidin-1-yl}benzamide] | 71 nM | 95% | 893 nM | 24% | 
CN(C)C(=O)c1ccc(N2CCC(C3CCN(C(=O)C4(c5ccccc5F)CCCC4)CC3)CC2)cc1Cl [Example A-45, 2-chloro-4-(1′-{[1-(2-fluorophenyl)cyclopentyl]carbonyl}-4,4′-bipiperidin-1-yl)-N,N-dimethylbenzamide] | 11 nM | 108% | 577 nM | 53% | 
COc1cccc(C2(C(=O)N3CCC(C4CCN(c5ccc(C(=O)N(C)C)c(Cl)c5)CC4)CC3)CCC2)c1 [Example A-93, 2-chloro-4-(1′-{[1-(3-methoxyphenyl)cyclobutyl]carbonyl}-4,4′-bipiperidin-1-yl)-N,N-dimethylbenzamide] | 171 nM | 100% | 2270 nM | 22% | 
CN(C)C(=O)c1ccc(N2CCC(C3CCN(C(=O)C(O)(c4ccccc4F)C(F)(F)F)CC3)CC2)cc1Cl (stereo not shown) [Example A-96, 2-chloro-N,N-dimethyl-4-{1′-[3,3,3-trifluoro-2-(2-fluorophenyl)-2-hydroxypropanoyl]-4,4′-bipiperidin-1-yl}benzamide] | 132 nM | 107% | 2340 nM | 29% | 
